Patent US4603125A, “Substituted o-phenylenediamine acridine compounds having antitumor activity” (Development Finance Corporation of New Zealand, priority 1982, dated 1986)
Entries after “also recorded” stand apart in the source; their conditions may differ.

Experiments:
[1] = Rm from reversed phase partition chromatography (lipophilic-hydrophilic balance)
[2] = tested on: P388 Leukemia; experiment: P388 leukemia in vivo (increase in lifespan); conditions: at OD; i.p. tumour, days 1, 5 and 9; >20% statistically significant
[3] = tested on: L1210 leukemia; conditions: earlier work, cited from earlier work
[4] = physchem; conditions: reversed phase partition chromatography
[5] = tested on: Lewis lung carcinoma; experiment: Lewis lung carcinoma in vivo (increase in lifespan); conditions: for ILS (percentage increase in lifespan), Lewis lung: i.v. tumour, days 1, 5 and 9, >40% statistically significant
Text: LL. is the Lewis lung carcinoma.

[6] = tested on: tumour; experiment: antitumour activity in in vivo test systems (summary); conditions: compared to unsubstituted AMSA and m-AMSA (for compound 1)
Text: The compounds of general formula (I) and particularly the examples listed in Tables I and II, have antitumor activity in in vivo test systems, as shown by the data of Tables III and IV.

Compound | chromatographic logP [1] | ILSmax (percentage increase in lifespan), P388 [2] [%] | other results
CS(=O)(=O)Nc1ccc(Nc2c3ccccc3nc3ccccc23)cc1 [AMSA, 4'-(9-acridinylamino) methanesulphonanilide] | – | – | antitumour activity on L1210 leukemia [3]: good antitumour activity
CNc1cc(NS(C)(=O)=O)ccc1Nc1c2cccc(C)c2nc2c(C)cccc12 [Compound 25] | 0.16 | – | –
CNc1cc(NS(C)(=O)=O)ccc1Nc1c2ccc(C)cc2nc2c(C)cccc12 [Compound 16] | 0.38 | 92 | –
CNC(=O)c1cccc2c(Nc3ccc(NS(C)(=O)=O)cc3N(C)C)c3cccc(C)c3nc12 [Compound 44] | – | – | chromatographic logP [4]: 0.4
CN(CCO)c1cc(NS(C)(=O)=O)ccc1Nc1c2ccccc2nc2ccccc12 [Compound 45] | 0.1 | 100 | –
CNc1cc(NP(=O)(OC)OC)ccc1Nc1c2ccccc2nc2cc(Br)ccc12 [Compound 48] | 0.62 | 77 | –
Cc1cccc2c(Nc3ccc(NS(C)(=O)=O)cc3NCC(O)CO)c3ccccc3nc12 (stereo not drawn) [Compound 31] | 0.21 | 83 | –
Nc1ccc(S(=O)(=O)Nc2ccc(Nc3c4ccccc4nc4ccccc34)c(NCCO)c2)cc1 [Compound 65] | 0.18 | 50 | –
CNc1cc(NS(C)(=O)=O)ccc1Nc1c2ccc(Cl)cc2nc2c(C)cccc12 [Compound 19] | 0.4 | – | –
Cc1cccc2c(Nc3ccc(NS(C)(=O)=O)cc3NCCO)c3ccccc3nc12 [Compound 29] | 0.02 | – | –
CNc1cc(NS(C)(=O)=O)ccc1Nc1c2ccc(C)cc2nc2c(OC)cccc12 [Compound 22] | 0.33 | – | –
CNC(=O)c1cccc2c(Nc3ccc(NS(C)(=O)=O)cc3NC)c3cccc(C)c3nc12 [Compound 24] | 0.23 | 94 | –
COc1cc(NS(C)(=O)=O)ccc1Nc1c2ccccc2nc2ccccc12 [m-AMSA, 4'-(9-acridinylamino)methanesulphon-m-anisidide, reference compound] | – | 78 | ILS (percentage increase in lifespan), Lewis lung ([5]; at OD): 38%; active, Lewis lung ([5]; at the stated dose (OD)): Y/N; Lewis lung activity in words ([5]; tumour implanted intravenously): minimal activity; also recorded: strictly inactive; dose potency of 3'-methoxy derivative ([3]; vs AMSA): increased dose potency
CNc1cc(NS(=O)(=O)c2ccc(N)cc2)ccc1Nc1c2ccccc2nc2cc(Br)ccc12 [Compound 63] | 0.29 | – | –
CNc1cc(NC(=O)Oc2ccccc2)ccc1Nc1c2ccccc2nc2ccccc12 [Compound 66] | 0.76 | 71 | –
CS(=O)(=O)Nc1ccc(Nc2c3ccccc3nc3cc(Br)ccc23)c(NCCO)c1 [Compound 28] | 0.11 | – | –
CNC(=O)c1cccc2c(Nc3ccc(NS(C)(=O)=O)cc3NC)c3ccc(Cl)cc3nc12 [Compound 23] | 0.23 | 59 | –
CNc1cc(NS(C)(=O)=O)ccc1Nc1c2ccc(OC)cc2nc2c(C)cccc12 [Compound 17] | 0.31 | – | –
CNc1cc(NS(C)(=O)=O)ccc1Nc1c2ccccc2nc2ccccc12 [Compound 1] | 0.17 | – | potency and antitumour activity [6]: increased potency and antitumour activity; ILS (percentage increase in lifespan), Lewis lung ([5]; at OD): 85%
Cc1cccc2c(Nc3ccc(NS(C)(=O)=O)cc3N(C)C)c3ccccc3nc12 [Compound 34] | – | – | chromatographic logP [4]: 0.36
CNc1cc(NS(C)(=O)=O)ccc1Nc1c2ccccc2nc2cc([N+](=O)[O-])ccc12 [Compound 9] | 0.04 | 70 | –
CN(C)c1cc(NS(C)(=O)=O)ccc1Nc1c2ccccc2nc2ccccc12 [Compound 32] | 0.41 | 212 | cures, Lewis lung ([5]; at OD): all cured; ILS (percentage increase in lifespan), Lewis lung ([5]; at OD): > 250%
COc1ccc2c(Nc3ccc(NS(C)(=O)=O)cc3N(C)C)c3cccc(C)c3nc2c1 [Compound 41] | – | – | chromatographic logP [4]: 0.44
CNc1cc(NS(C)(=O)=O)ccc1Nc1c2cccc(OC)c2nc2c(OC)cccc12 [Compound 26] | – | 84 | –
CNc1cc(NS(C)(=O)=O)ccc1Nc1c2ccc(Br)cc2nc2c(C)cccc12 [Compound 21] | 0.38 | – | –
O=S(=O)(Nc1ccc(Nc2c3ccccc3nc3ccccc23)c(NCCO)c1)c1ccccc1 [Compound 61] | 0.35 | 81 | –
CNc1cc(NS(C)(=O)=O)ccc1Nc1c2ccc(F)cc2nc2c(C)cccc12 [Compound 18] | 0.31 | – | –
CNc1cc(NS(=O)(=O)c2ccc(N)cc2)ccc1Nc1c2ccccc2nc2c(C)cccc12 [Compound 64] | 0.13 | – | –
CNc1cc(NP(=O)(OC)OC)ccc1Nc1c2ccccc2nc2ccccc12 [Compound 47] | 0.32 | 118 | –
CNc1cc(NP(=O)(OC)OC)ccc1Nc1c2ccccc2nc2c(C)cccc12 [Compound 49] | 0.47 | 91 | –

The next lines start with results.

chromatographic logP [1] | Compound | ILSmax (percentage increase in lifespan), P388 [2] [%] | other results
0.63 | CNc1cc(NC(=O)OC)ccc1Nc1c2ccccc2nc2cc(F)ccc12 [Compound 53] | 110 | –
0.56 | COC(=O)Nc1ccc(Nc2c3ccccc3nc3ccccc23)c(N(C)C)c1 [Compound 59] | 51 | –
0.69 | CNc1cc(NC(=O)OC)ccc1Nc1c2ccc(Br)cc2nc2c(C)cccc12 [Compound 57] | 97 | ILS (percentage increase in lifespan), Lewis lung ([5]; at OD): 82%
0.18 | CNc1ccc2c(Nc3ccc(NS(C)(=O)=O)cc3NC)c3ccccc3nc2c1 [Compound 10] | – | –
0.36 | CNc1cc(NS(C)(=O)=O)ccc1Nc1c2ccccc2nc2cc(Cl)ccc12 [Compound 6] | – | –
0.03 | CNc1cc(NS(=O)(=O)c2ccc(N)cc2)ccc1Nc1c2ccccc2nc2ccccc12 [Compound 62] | – | –
0.35 | CNc1cc(NS(C)(=O)=O)ccc1Nc1c2ccccc2nc2cc(I)ccc12 [Compound 8] | 80 | –
0.51 | CNc1cc(NC(=O)OC)ccc1Nc1c2ccccc2nc2ccccc12 [Compound 50] | – | –
0.13 | CNc1cc(NS(C)(=O)=O)ccc1Nc1c2ccccc2nc2cc(NC(=O)OC)ccc12 [Compound 11] | – | –
0.56 | CNc1cc(NC(=O)OC)ccc1Nc1c2ccccc2nc2c(C)cccc12 [Compound 58] | – | ILS (percentage increase in lifespan), Lewis lung ([5]; at OD): 48%
0.19 | CNc1cc(NS(C)(=O)=O)ccc1Nc1c2ccccc2nc2c(C)cccc12 [Compound 12] | – | –
0.07 | CS(=O)(=O)Nc1ccc(Nc2c3ccccc3nc3ccccc23)c(NCCO)c1 [Compound 27] | 89 | –
0.39 | CNc1cc(NS(C)(=O)=O)ccc1Nc1c2ccccc2nc2cc(C)ccc12 [Compound 3] | 83 | –
0.55 | CNc1cc(NS(=O)(=O)c2ccccc2)ccc1Nc1c2ccccc2nc2ccccc12 [Compound 60] | – | –
0.07 | CNC(=O)c1cccc2c(Nc3ccc(NS(C)(=O)=O)cc3NC)c3ccccc3nc12 [Compound 15] | 82 | –
0.34 | CNc1cc(NS(C)(=O)=O)ccc1Nc1c2ccccc2nc2cc(Br)ccc12 [Compound 7] | 94 | –
0.67 | CNc1cc(NC(=O)OC)ccc1Nc1c2ccc(Cl)cc2nc2c(C)cccc12 [Compound 56] | – | ILS (percentage increase in lifespan), Lewis lung ([5]; at OD): 100%
0.3 | CS(=O)(=O)Nc1ccc(Nc2c3ccccc3nc3ccccc23)c(NCC(O)CO)c1 (stereo not drawn) [Compound 30] | 84 | –
0.28 | CNc1cc(NS(C)(=O)=O)ccc1Nc1c2ccccc2nc2cc(F)ccc12 [Compound 5] | – | –
0.21 | CNc1cc(NS(C)(=O)=O)ccc1Nc1c2ccccc2nc2cc(OC)ccc12 [Compound 4] | 140 | –
0.12 | CNc1cc(NS(C)(=O)=O)ccc1Nc1c2ccccc2nc2c(OC)cccc12 [Compound 13] | – | –
0.7 | CNc1cc(NC(=O)OC)ccc1Nc1c2ccccc2nc2cc(Br)ccc12 [Compound 55] | – | –
0.73 | CNc1cc(NC(=O)OC)ccc1Nc1c2ccccc2nc2cc(Cl)ccc12 [Compound 54] | – | –
0.39 | COC(=O)Nc1ccc(Nc2c3ccccc3nc3ccccc23)c(NCCO)c1 [Compound 51] | – | –
0.78 | CNc1cc(NC(=O)OC)ccc1Nc1c2ccccc2nc2cc(C)ccc12 [Compound 52] | 86 | –
